The text below walks through data of the OligoGym collection.

HELM strings list units from the 5' end as sugar, base in round brackets, then linkage (d deoxyribose, r ribose, m 2'-O-methyl, p phosphodiester). Strings are as the collection lists them; they lack the last nucleoside at the 3' end of the tested compound. [moe] = 2'-O-(2-methoxyethyl) (MOE); [sp] = phosphorothioate linkage; [m5C] = 5-methylcytosine

For the data set, the target named is C9ORF72. As to the kind of experiment: mouse, dose not given. The conditions noted are these: ASO.
As to “RNA1{[moe](G)[sp].[moe](T)p.[moe](T)p.[moe](A)p.[moe](A)p.[moe](T)[sp].d([m5C])[sp].d(T)[sp].d(T)[sp].d(T)[sp].d(A)[sp].d(T)[sp].d([m5C])[sp].d(A)[sp].[moe](G)p.[moe](G)[sp].[moe](T)}$$$$ (last 3' nucleoside missing)”, the 3 h FOB score was 3 score 0-7.

“RNA1{[moe](G)[sp].[moe]([m5C])[sp].[moe]([m5C])[sp].[moe](T)[sp].[moe](T)[sp].d(A)[sp].d([m5C])[sp].d(T)[sp].d([m5C])[sp].d(T)[sp].d(A)[sp].d(G)[sp].d(G)[sp].d(A)[sp].d([m5C])[sp].[moe]([m5C])[sp].[moe](A)[sp].[moe](A)[sp].[moe](G)}$$$$ (last 3' nucleoside missing)” had a 3 h FOB score of 7 score 0-7.

In the case of “RNA1{[moe](G)[sp].[moe]([m5C])p.[moe](T)p.[moe](G)[sp].d([m5C])[sp].d(G)[sp].d(G)[sp].d(T)[sp].d(T)[sp].d(G)[sp].d(T)[sp].d(T)[sp].[moe](T)p.[moe]([m5C])p.[moe]([m5C])p.[moe]([m5C])[sp].[moe](T)}$$$$ (last 3' nucleoside missing)”, the 3 h FOB score is 5 score 0-7.

For the substance “RNA1{[moe](G)[sp].[moe]([m5C])p.[moe](T)p.[moe](G)p.[moe]([m5C])p.[moe](G)[sp].d(G)[sp].d(T)[sp].d(T)[sp].d(G)[sp].d(T)[sp].d(T)[sp].d(T)[sp].d([m5C])[sp].[moe]([m5C])p.[moe]([m5C])[sp].[moe](T)}$$$$ (last 3' nucleoside missing)”, the 3 h FOB score was determined as 5.5 score 0-7.

The substance “RNA1{[moe](G)[sp].[moe]([m5C])p.[moe]([m5C])[sp].d(T)[sp].d(T)[sp].d(A)[sp].d([m5C])[sp].d(T)[sp].d([m5C])[sp].d(T)[sp].d(A)[sp].[moe](G)p.[moe](G)p.[moe](A)p.[moe]([m5C])p.[moe]([m5C])[sp].[moe](A)}$$$$ (last 3' nucleoside missing)” yielded a 3 h FOB score of 1.25 score 0-7.

In turn, “RNA1{[moe](G)[sp].[moe]([m5C])p.[moe]([m5C])p.[moe](T)[sp].d(T)[sp].d(A)[sp].d([m5C])[sp].d(T)[sp].d([m5C])[sp].d(T)[sp].d(A)[sp].d(G)[sp].[moe](G)p.[moe](A)p.[moe]([m5C])p.[moe]([m5C])[sp].[moe](A)}$$$$ (last 3' nucleoside missing)” came in with a 3 h FOB score of 0.25 score 0-7.

On to “RNA1{[moe](G)[sp].[moe]([m5C])p.[moe]([m5C])p.[moe](T)p.[moe](T)p.[moe](A)[sp].d([m5C])[sp].d(T)[sp].d([m5C])[sp].d(T)[sp].d(A)[sp].d(G)[sp].d(G)[sp].d(A)[sp].[moe]([m5C])p.[moe]([m5C])[sp].[moe](A)}$$$$ (last 3' nucleoside missing)”, for which the 3 h FOB score was 1 score 0-7.

With “RNA1{[moe](G)[sp].[moe]([m5C])p.[moe]([m5C])p.[moe](T)p.[moe](T)p.[moe](A)p.[moe]([m5C])[sp].d(T)[sp].d([m5C])[sp].d(T)[sp].d(A)[sp].d(G)[sp].d(G)[sp].d(A)[sp].d([m5C])[sp].[moe]([m5C])[sp].[moe](A)}$$$$ (last 3' nucleoside missing)”, the 3 h FOB score was found to be 2.5 score 0-7.

“RNA1{[moe](G)[sp].[moe]([m5C])p.[moe]([m5C])p.[moe](T)p.[moe](T)p.[moe](A)p.[moe]([m5C])p.d(T)[sp].d([m5C])[sp].d(T)[sp].d(A)[sp].d(G)[sp].d(G)[sp].d(A)[sp].d([m5C])[sp].d([m5C])[sp].d(A)[sp].[moe](A)[sp].[moe](G)}$$$$ (last 3' nucleoside missing)” displayed a 3 h FOB score of 3.25 score 0-7.

For “RNA1{[moe](G)[sp].[moe]([m5C])p.[moe]([m5C])p.[moe](T)p.[moe](T)p.[moe](A)p.d([m5C])[sp].d(T)[sp].d([m5C])[sp].d(T)[sp].d(A)[sp].d(G)[sp].d(G)[sp].d(A)[sp].d([m5C])[sp].d([m5C])[sp].[moe](A)p.[moe](A)[sp].[moe](G)}$$$$ (last 3' nucleoside missing)”, the 3 h FOB score turned out to be 2.25 score 0-7.

“RNA1{[moe](G)[sp].[moe]([m5C])p.[moe]([m5C])p.[moe](T)p.d(T)[sp].d(A)[sp].d([m5C])[sp].d(T)[sp].d([m5C])[sp].d(T)[sp].d(A)[sp].d(G)[sp].d(G)[sp].d(A)[sp].[moe]([m5C])p.[moe]([m5C])p.[moe](A)p.[moe](A)[sp].[moe](G)}$$$$ (last 3' nucleoside missing)” yielded a 3 h FOB score of 5.75 score 0-7.

As for “RNA1{[moe](G)[sp].[moe]([m5C])p.[moe]([m5C])p.[moe]([m5C])[sp].d([m5C])[sp].d(T)[sp].d(A)[sp].d(G)[sp].d([m5C])[sp].d(G)[sp].d([m5C])[sp].d(G)[sp].[moe]([m5C])p.[moe](G)p.[moe](A)p.[moe]([m5C])[sp].[moe](T)}$$$$ (last 3' nucleoside missing)”, the 3 h FOB score was 1.5 score 0-7.

Take “RNA1{[moe](G)[sp].[moe]([m5C])p.[moe]([m5C])p.[moe]([m5C])p.[moe]([m5C])p.[moe](T)[sp].d(A)[sp].d(G)[sp].d([m5C])[sp].d(G)[sp].d([m5C])[sp].d(G)[sp].d([m5C])[sp].d(G)[sp].[moe](A)p.[moe]([m5C])[sp].[moe](T)}$$$$ (last 3' nucleoside missing)”: the 3 h FOB score turned out to be 1 score 0-7.

In turn, “RNA1{[moe](G)[sp].[moe]([m5C])p.[moe]([m5C])p.[moe]([m5C])p.[moe]([m5C])p.[moe](T)p.d(A)[sp].d(G)[sp].d([m5C])[sp].d(G)[sp].d([m5C])[sp].d(G)[sp].d([m5C])[sp].d(G)[sp].d(A)[sp].d([m5C])[sp].[moe](T)p.[moe]([m5C])[sp].[moe]([m5C])}$$$$ (last 3' nucleoside missing)” yielded a 3 h FOB score of 0 score 0-7.

“RNA1{[moe](G)[sp].[moe]([m5C])p.[moe]([m5C])p.[moe]([m5C])p.d([m5C])[sp].d(T)[sp].d(A)[sp].d(G)[sp].d([m5C])[sp].d(G)[sp].d([m5C])[sp].d(G)[sp].d([m5C])[sp].d(G)[sp].[moe](A)p.[moe]([m5C])p.[moe](T)p.[moe]([m5C])[sp].[moe]([m5C])}$$$$ (last 3' nucleoside missing)” displayed a 3 h FOB score of 1.25 score 0-7.

“RNA1{[moe](G)[sp].[moe]([m5C])p.[moe]([m5C])p.d(T)[sp].d(T)[sp].d(A)[sp].d([m5C])[sp].d(T)[sp].d([m5C])[sp].d(T)[sp].d(A)[sp].d(G)[sp].d(G)[sp].[moe](A)p.[moe]([m5C])p.[moe]([m5C])p.[moe](A)p.[moe](A)[sp].[moe](G)}$$$$ (last 3' nucleoside missing)” yielded a 3 h FOB score of 2 score 0-7.

In turn, “RNA1{[moe](T)[sp].[moe](A)[sp].[moe]([m5C])[sp].[moe](A)[sp].[moe](G)[sp].d(G)[sp].d([m5C])[sp].d(T)[sp].d(G)[sp].d([m5C])[sp].d(G)[sp].d(G)[sp].d(T)[sp].d(T)[sp].d(G)[sp].[moe](T)[sp].[moe](T)[sp].[moe](T)[sp].[moe]([m5C])}$$$$ (last 3' nucleoside missing)” gave a 3 h FOB score of 7 score 0-7.

Substance “RNA1{[moe](T)[sp].[moe](G)p.[moe](G)p.[moe](T)[sp].d(T)[sp].d(A)[sp].d(A)[sp].d(T)[sp].d([m5C])[sp].d(T)[sp].d(T)[sp].d(T)[sp].[moe](A)p.[moe](T)p.[moe]([m5C])p.[moe](A)[sp].[moe](G)}$$$$ (last 3' nucleoside missing)” returned a 3 h FOB score of 3.25 score 0-7.

As to “RNA1{[moe](T)[sp].[moe](G)p.[moe](G)p.[moe](T)p.[moe](T)p.[moe](A)[sp].d(A)[sp].d(T)[sp].d([m5C])[sp].d(T)[sp].d(T)[sp].d(T)[sp].d(A)[sp].d(T)[sp].[moe]([m5C])p.[moe](A)[sp].[moe](G)}$$$$ (last 3' nucleoside missing)”, the 3 h FOB score was 6.25 score 0-7.

“RNA1{[moe](T)[sp].[moe](G)p.[moe](G)p.[moe](T)p.[moe](T)p.[moe](A)p.[moe](A)p.d(T)[sp].d([m5C])[sp].d(T)[sp].d(T)[sp].d(T)[sp].d(A)[sp].d(T)[sp].d([m5C])[sp].d(A)[sp].d(G)[sp].[moe](G)[sp].[moe](T)}$$$$ (last 3' nucleoside missing)” returned a 3 h FOB score of 3.75 score 0-7.

“RNA1{[moe](T)[sp].[moe](G)p.[moe](G)p.[moe](T)p.[moe](T)p.[moe](A)p.d(A)[sp].d(T)[sp].d([m5C])[sp].d(T)[sp].d(T)[sp].d(T)[sp].d(A)[sp].d(T)[sp].d([m5C])[sp].d(A)[sp].[moe](G)p.[moe](G)[sp].[moe](T)}$$$$ (last 3' nucleoside missing)”: the 3 h FOB score was determined as 1 score 0-7.

With “RNA1{[moe](T)[sp].[moe](G)p.[moe](G)p.[moe](T)p.d(T)[sp].d(A)[sp].d(A)[sp].d(T)[sp].d([m5C])[sp].d(T)[sp].d(T)[sp].d(T)[sp].d(A)[sp].d(T)[sp].[moe]([m5C])p.[moe](A)p.[moe](G)p.[moe](G)[sp].[moe](T)}$$$$ (last 3' nucleoside missing)”, the 3 h FOB score turned out to be 1 score 0-7.

As to “RNA1{[moe](T)[sp].[moe](G)p.[moe](G)p.d(T)[sp].d(T)[sp].d(A)[sp].d(A)[sp].d(T)[sp].d([m5C])[sp].d(T)[sp].d(T)[sp].d(T)[sp].d(A)[sp].[moe](T)p.[moe]([m5C])p.[moe](A)p.[moe](G)p.[moe](G)[sp].[moe](T)}$$$$ (last 3' nucleoside missing)”, the 3 h FOB score amounted to 0.25 score 0-7.

The substance “RNA1{[moe](T)[sp].[moe]([m5C])p.[moe](T)[sp].d(G)[sp].d(T)[sp].d([m5C])[sp].d(T)[sp].d(T)[sp].d(T)[sp].d(G)[sp].d(G)[sp].[moe](A)p.[moe](G)p.[moe]([m5C])p.[moe]([m5C])p.[moe]([m5C])[sp].[moe](A)}$$$$ (last 3' nucleoside missing)” came in with a 3 h FOB score of 4 score 0-7.

“RNA1{[moe](T)[sp].[moe]([m5C])p.[moe](T)p.[moe](G)[sp].d(T)[sp].d([m5C])[sp].d(T)[sp].d(T)[sp].d(T)[sp].d(G)[sp].d(G)[sp].d(A)[sp].[moe](G)p.[moe]([m5C])p.[moe]([m5C])p.[moe]([m5C])[sp].[moe](A)}$$$$ (last 3' nucleoside missing)” came in with a 3 h FOB score of 5.25 score 0-7.

“RNA1{[moe](T)[sp].[moe]([m5C])p.[moe](T)p.[moe](G)p.[moe](T)p.[moe]([m5C])[sp].d(T)[sp].d(T)[sp].d(T)[sp].d(G)[sp].d(G)[sp].d(A)[sp].d(G)[sp].d([m5C])[sp].[moe]([m5C])p.[moe]([m5C])[sp].[moe](A)}$$$$ (last 3' nucleoside missing)” returned a 3 h FOB score of 5.5 score 0-7.
